Laboratory results as given in ChEMBL document CHEMBL3351927, “Pyrrole alkaloids from the fruits of Morus alba” (Bioorg Med Chem Lett, 2014).

Target: T1, Pancreatic triacylglycerol lipase (Sus scrofa) (UniProt P00591)
T1 sequence (whole entry): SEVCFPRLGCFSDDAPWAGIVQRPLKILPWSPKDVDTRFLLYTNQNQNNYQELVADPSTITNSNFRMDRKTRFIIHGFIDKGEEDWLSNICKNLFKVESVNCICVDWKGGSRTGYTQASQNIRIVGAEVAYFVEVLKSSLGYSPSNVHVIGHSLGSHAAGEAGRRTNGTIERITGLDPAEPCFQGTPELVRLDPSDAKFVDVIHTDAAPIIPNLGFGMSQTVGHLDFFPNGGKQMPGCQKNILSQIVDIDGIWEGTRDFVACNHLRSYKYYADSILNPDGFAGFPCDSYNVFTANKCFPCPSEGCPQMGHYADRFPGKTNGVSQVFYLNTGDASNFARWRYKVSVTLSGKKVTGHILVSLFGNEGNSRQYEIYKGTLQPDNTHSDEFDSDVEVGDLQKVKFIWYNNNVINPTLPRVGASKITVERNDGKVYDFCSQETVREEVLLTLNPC
Test: Inhibition of porcine pancreatic lipase assessed as p-NPB substrate hydrolysis at 100 uM after 15 mins by microplate reader

inhibition | SMILES
70% | O=Cc1ccc2n1C(Cc1ccc(O)cc1)C(=O)OC2 (configuration not stated)
40% | COCc1ccc(C=O)n1C(C)C(=O)OC (configuration not stated)
